According to article PMC8401257, “Serjanic Acid Glycosides from Chenopodium hybridum L. with Good Cytotoxicity and Selectivity Profile against Several Panels of Human Cancer Cell Lines” (Molecules, 2021):

How the values were obtained:
[1] = system: PC3; assay: LDH cytotoxicity assay, prostate carcinoma PC3; format: cell-based; conditions: Homo sapiens
Description: (§1) Human cancer and the corresponding normal cell lines, used in the study, were grouped as follows: skin panel (melanoma HTB140, derived from metastatic site: lymph node, ATCC Hs 294T; malignant melanoma A375, ATCC CRL-1619; stage I primary melanoma WM793, RRID:CVCL 8787; skin keratinocytes HaCaT), prostate panel (prostate carcinoma Du145, derived from metastatic site: brain, ATCC HTB-81; grade IV prostate carcinoma, PC3, derived from metastatic site: bone, ATCC CRL-1435; prostate epithelial cells PNT2, ECACC 95012613), gastrointestinal panel (colorectal adenocarcinomas Caco2, ATCC HTB-37, and HT29, ATCC HTB-38; hepatocellular carcinoma HepG2, ATCC HB-8065), thyroid panel (follicular thyroid carcinoma FTC133, ECACC 94060901; undifferentiated thyroid carcinoma 8505C, ECACC 94090184; Nthy-ori 3–1, human thyroid follicular epithelial cells, ECACC 90011609), lung carcinoma A549 cells (ATCC CRM-CCL-185). Cells were grown at standard conditions (37 °C, 5% CO2, relative humidity) and culture media (DMEM/F12 for PNT2, WM 793, HT29, PC3, FTC133, 8505C, A549; DMEM Low Glucose for DU145; DMEM High Glucose for HTB140, A375, HaCaT; MEM with NEAA for Caco2), supplemented with 10% fetal bovine serum (FBS) and 1% antibiotics solution (10 000 U penicillin and 10 mg streptomycin/mL). All culture media and supplements were from Sigma-Aldrich.
(§2) Cell viability was measured with the lactate dehydrogenase (LDH) assay (Clontech, Mountain View, CA, USA), as described previously. Before the experiment, cells were seeded onto 96-well plates for 24 h (1.5 × 10^4 cells/well). The culture medium was replaced with a fresh medium containing different concentrations of the tested extracts (10–100 μg/mL, in DMSO) and incubated for 24 and 48 h. The absorbance was measured at 490 nm using a Biotek Synergy microplate reader. Cell viability was expressed as percent of the dead cells and IC50 values were also calculated. Each experiment was done in triplicate.
(§3) Data were analyzed using Statistica v. 13.3 (Stat Soft, TIBCO, Palo Alto, CA, USA). Each variable was expressed as mean (± SD). The statistical significance in cytotoxic assay was determined using Mann–Whitney U test. The value p < 0.05 was considered to indicate significant differences. NMR Spectra were analyzed using ACD/Labs ^1D NMR Processor 12.0 (Academic Edition) and JEOL DELTA v 5.3.1 (Jeol Resonance Inc., JEOL, Tokyo, Japan). In MS analysis MassLynx V 4.1 (Waters, Milford, MA, USA) and Compass DataAnalysis (Bruker, Billerica, MA, USA) software were used. IC50 values in cytotoxic assay were calculated using Origin Pro 2020b (OriginLab Corporation, Northampton, MA, USA).

[2] = system: PNT2; assay: LDH cytotoxicity assay, normal prostate epithelial PNT2; format: cell-based; conditions: Homo sapiens
Description: as §1, §2, §3

[3] = system: HaCaT; assay: LDH cytotoxicity assay, skin keratinocytes HaCaT; format: cell-based; conditions: Homo sapiens
Description: as §1, §2, §3

[4] = system: HepG2; assay: LDH cytotoxicity assay, hepatocellular carcinoma HepG2; format: cell-based; conditions: Homo sapiens
Description: as §1, §2, §3

[5] = system: FTC133; assay: LDH cytotoxicity assay, follicular thyroid carcinoma FTC133; format: cell-based; conditions: Homo sapiens
Description: as §1, §2, §3

[6] = system: A549; assay: LDH cytotoxicity assay, lung carcinoma A549; format: cell-based; conditions: Homo sapiens
Description: as §1, §2, §3

[7] = system: HT29; assay: LDH cytotoxicity assay, colorectal adenocarcinoma HT29; format: cell-based; conditions: Homo sapiens
Description: as §1, §2, §3

[8] = system: Nthy-ori 3–1; assay: LDH cytotoxicity assay, thyroid follicular epithelial cells Nthy-ori 3–1; format: cell-based; conditions: Homo sapiens
Description: as §1, §2, §3

[9] = system: DU-145; assay: LDH cytotoxicity assay, prostate carcinoma DU-145; format: cell-based; conditions: Homo sapiens
Description: as §1, §2, §3

[10] = system: 8505C; assay: LDH cytotoxicity assay, undifferentiated thyroid carcinoma 8505C; format: cell-based; conditions: Homo sapiens
Description: as §1, §2, §3

[11] = system: Caco-2; assay: LDH cytotoxicity assay, colorectal adenocarcinoma Caco-2; format: cell-based; conditions: Homo sapiens
Description: as §1, §2, §3

[12] = system: HTB-140; assay: LDH cytotoxicity assay, melanoma HTB-140; format: cell-based; conditions: Homo sapiens
Description: as §1, §2, §3

[13] = system: WM793; assay: LDH cytotoxicity assay, primary melanoma WM793; format: cell-based; conditions: Homo sapiens
Description: as §1, §2, §3

[14] = system: A375; assay: LDH cytotoxicity assay, malignant melanoma A375; format: cell-based; conditions: Homo sapiens
Description: as §1, §2, §3

[15] = system: HeLa cells; design: method as in doi:10.1007/s11101-009-9121-0; conditions: cited from earlier work

Structure (SMILES) | IC50 ([1]; PC-3, PC3, 24 h) | IC50 ([1]; PC-3, PC3, 48 h) | IC50 ([2]; PNT2, 24 h) | IC50 ([2]; PNT2, 48 h) | IC50 ([3]; 24 h) | IC50 ([3]; 48 h) | IC50 ([4]; HepG2, 24 h) | IC50 ([4]; HepG2, 48 h) | IC50 ([5]; FTC-133, FTC133, 24 h) | IC50 ([5]; FTC-133, FTC133, 48 h) | IC50 ([6]; A549, 24 h) | IC50 ([6]; A549, 48 h) | IC50 ([7]; HT-29, HT29, 24 h) | IC50 ([7]; HT-29, HT29, 48 h) | IC50 ([9]; DU-145, 24 h) | IC50 ([10]; 24 h) | IC50 ([11]; Caco-2, 24 h) | IC50 ([12]; HTB-140, 24 h) | IC50 ([13]; WM793, 24 h) | IC50 ([14]; A-375, A375, 24 h) | also measured
COC(=O)[C@@]1(C)CC[C@]2(C(=O)O[C@@H]3O[C@H](CO)[C@@H](O)[C@H](O)[C@H]3O)CC[C@]3(C)C(=CC[C@@H]4[C@@]5(C)CC[C@H](O[C@@H]6OC[C@H](O)[C@H](O)[C@H]6O[C@@H]6O[C@@H](C)[C@H](O)[C@@H](O)[C@H]6O)C(C)(C)[C@@H]5CC[C@]43C)[C@@H]2C1 [Compound 1, 3-O-α-L-Rhamnopyranosyl-(1→2)-α-L-Arabinopyranosyl Serjanic Acid 28-O-β-D-Glucopyranosyl Ester] | 34.3 µg/mL | 19.5 µg/mL | > 100 µg/mL | > 100 µg/mL | > 100 µg/mL | > 100 µg/mL | > 100 µg/mL | 76.6 µg/mL | > 100 µg/mL | 76.3 µg/mL | 61.3 µg/mL | 34.7 µg/mL | 57.9 µg/mL | 22.8 µg/mL | 16.6 µg/mL | > 100 µg/mL | 28.7 µg/mL | 11.7 µg/mL | 17.2 µg/mL | 32.4 µg/mL | IC50 ([8]; Nthy-ori 3–1, 24 h): > 100 µg/mL; IC50 ([8]; Nthy-ori 3–1, 48 h): > 100 µg/mL; IC50 ([9]; DU-145, 48 h): 7.25 µg/mL; IC50 ([10]; 48 h): > 100 µg/mL; IC50 ([11]; Caco-2, 48 h): 15.3 µg/mL; IC50 ([12]; HTB-140, 48 h): 7.95 µg/mL; IC50 ([13]; WM793, 48 h): 9.92 µg/mL; IC50 ([14]; A-375, A375, 48 h): 20.3 µg/mL
COc1cccc2c1C(=O)c1c(O)c3c(c(O)c1C2=O)C[C@@](O)(C(=O)CO)C[C@@H]3O[C@H]1C[C@H](N)[C@H](O)[C@H](C)O1 [Doxorubicin, reference compound] | > 50 µg/mL | – | 1.38 µg/mL | – | 4.68 µg/mL | – | 1.03 µg/mL | – | 4.02 µg/mL | – | 1.73 µg/mL | – | 1.53 µg/mL | – | 3.18 µg/mL | > 40 µg/mL | 3.44 µg/mL | 5.71 µg/mL | > 40 µg/mL | 0.59 µg/mL | –
COC(=O)[C@@]1(C)CC[C@]2(C(=O)O[C@@H]3O[C@H](CO)[C@@H](O)[C@H](O)[C@H]3O)CC[C@]3(C)C(=CC[C@@H]4[C@@]5(C)CC[C@H](O[C@@H]6OC[C@H](O)[C@H](O)[C@H]6O)C(C)(C)[C@@H]5CC[C@]43C)[C@@H]2C1 [Compound 2, 3-O-α-L-Arabinopyranosyl Serjanic Acid 28-O-β-D-Glucopyranosyl Ester] | 23.8 µg/mL | 18.3 µg/mL | > 100 µg/mL | > 100 µg/mL | > 100 µg/mL | > 100 µg/mL | 54.2 µg/mL | 39 µg/mL | > 100 µg/mL | > 100 µg/mL | 41.7 µg/mL | 28.3 µg/mL | 10.7 µg/mL | 6.48 µg/mL | 33.1 µg/mL | > 100 µg/mL | 20.7 µg/mL | 39.2 µg/mL | 32.2 µg/mL | 39.4 µg/mL | cytotoxicity towards HeLa cells [15]: inactive; IC50 ([8]; Nthy-ori 3–1, 24 h): > 100 µg/mL; IC50 ([8]; Nthy-ori 3–1, 48 h): > 100 µg/mL; IC50 ([9]; DU-145, 48 h): 23.5 µg/mL; IC50 ([10]; 48 h): > 100 µg/mL; IC50 ([11]; Caco-2, 48 h): 12.6 µg/mL; IC50 ([12]; HTB-140, 48 h): 25.1 µg/mL; IC50 ([13]; WM793, 48 h): 16.8 µg/mL; IC50 ([14]; A-375, A375, 48 h): 29.3 µg/mL
